Data reported in PMC12666486, “Novel dimeric dual-modality FAP-targeted agents with favorable tumor retention for image-guided surgery: a preclinical study” (European Journal of Nuclear Medicine and Molecular Imaging, 2025).

What was measured:
[1] = design: method as in manufacturers; settings: unconjugated dyes; ref manufacturers; cited from earlier work
[2] = ref 3 (supplement); cited from earlier work
HT1080hFAP cells = test: Radioactive-based cell efflux study; design: species or system human; settings: 2 h post-initial incubation
Experimental: For cell efflux studies, 1.0 × 10^6 HT1080hFAP cells were seeded in 6-well plates and cultivated for 48 h. On the day of the experiment, the cells in each well were washed twice with 1.5 mL of culturing medium and then incubated with the Gallium-68 labelled radiotracer at a final concentration of 1 nM/well for 1 h at 37 °C. The medium containing the unbound radiotracer was then replaced with either fresh medium or a 1 µM FAPI-46 solution in cell medium for blocking condition.
Subsequently, at specific time points, the radioactive medium was removed and collected together with two PBS/0.5% (w/v) BSA washes before adding 1 mL of fresh medium or FAPI-46 blocking solution. Finally, 2 h after the end of the first incubation, the cells were lyzed with 1 mL of 1 M NaOH. All collected fractions were measured in the γ-counter and the percentage of cell-associated activity at different time points relative to the total, corresponding to 1 h after incubation, was reported. The number of experimental replicates performed for each assay is specified in the respective figure legends.

HT1080hFAP tumor = test: Static PET/CT imaging of xenografted mice; format: in vivo, BALB/c nude mice; settings: 1.0 nmol, one mouse per compound
Experimental: For the induction of tumor xenografts, 2 × 10^6 of HT1080hFAP or HT1080 cells in 100 μL appropriate medium were subcutaneously injected in the right and left flank of each mouse (athymic female BALB/c nude), respectively. The tumors were allowed to grow until they had reached a volume of 0.3 to 0.8 cm^3. […] To evaluate ex vivo biodistribution on tumor models, 3 mouse xenografts were injected with 0.25 nmol of Gallium-67 labelled tracer (0.4 MBq) and then sacrificed after 1 h, 4 h and 1 day. For the PET/CT imaging study one xenograft-bearing mouse (tumor volume in the range 0.6–1.0 cm^3) was injected with 1.0 nmol of Gallium-68 labelled tracer (5–8 MBq). […] The images were visualized, processed, and quantified in Mediso InterView FUSION (Mediso Medical Imaging Systems, Budapest, Hungary). […] The results were expressed as percentages of injected dose per gram tissue (% ID/g). For the comparative imaging study (SPECT and in vivo fluorescence imaging), one xenograft-bearing mouse (tumor volume in the range 0.2–0.7 cm^3) was injected with 1.5–2 nmol of Gallium-67 tracer (15–17 MBq) and imaged at various time points up to 2 days p.i. […] The images were visualized, processed, and quantified in Mediso InterView FUSION (Mediso Medical Imaging Systems, Budapest, Hungary). […] The fluorescence emission was reported as photons/s/mm^2.

Row | Structure (SMILES) | Stokes shift [1] | λEm (nm) [1] [nm] | λEx (nm) [1] [nm] | further results
1 | CC1(C)C(=CC=C2CCCC(C=CC3=[N+](CCCCCC(=O)[O-])c4ccc(S(=O)(=O)[O-])cc4C3(C)C)=C2Oc2ccc(S(=O)(=O)[O-])cc2)N(CCCCS(=O)(=O)[O-])c2ccc(S(=O)(=O)[O-])cc21.[Na+].[Na+].[Na+].[Na+] [IRDye-800CW] | 17 | 792 | 775 | 
2 | CC(=O)NC1CCCN(O)C(=O)/C=C(/C)CCOC(=O)C(NC(C)=O)CCCN(O)C(=O)/C=C(/C)CCOC(=O)C(NC(C)=O)CCCN(O)C(=O)/C=C(/C)CCOC1=O (centres unmarked) [TAFC] |  |  |  | LogDpH7.4 [2]: -2.08 ± 0.02
3 | CC1(C)C(=CC=C2CCCC(C=CC3=[N+](CCC[N+](C)(C)C)c4ccc(S(=O)(=O)O)cc4C3(C)C)=C2Oc2ccc(CCC(=O)O)cc2)N(CCC[N+](C)(C)C)c2ccc(S(=O)(=O)O)cc21 [ZW800] | 18 | 786 | 768 | 
4 | CN(CCCN1CCN(C(=O)CN2CCN(CC(=O)[O-])CCN(CC(=O)[O-])CCN(CC(=O)[O-])CC2)CC1)c1ccc2nccc(C(=O)NCC(=O)N3CC(F)(F)C[C@H]3C#N)c2c1.[68Ga+3] [[^68Ga]Ga-FAPI-46] |  |  |  | Retained activity, % of the internalized fraction (HT1080hFAP cells; blocking with 1 µM FAPI-46, 1 nM): 9.4 ± 1.5%; Retained activity, % of the internalized fraction (HT1080hFAP cells; without blocking, 1 nM): 21.9 ± 1.4%; %ID/g in FAP(+)T (PET/CT, manually drawn ROI) (HT1080hFAP tumor; 1h p.i.): 3.4 %ID/g; %ID/g in FAP(+)T (PET/CT, manually drawn ROI) (HT1080hFAP tumor; 2h p.i.): 3.1 %ID/g
